Ends that are not written are not given here.
Columns and labels:
lymphosarcoma cells = conditions: BALB/c mice; cited from earlier work
[1] = tested on: human non-small cell lung cancer (NSCLC) cells; conditions: 1 or 10 mg per day subcutaneous; nude mice inoculated with human NSCLC cells; cited from earlier work
[2] = tested on: methylcholanthrene-induced fibrosarcoma; conditions: mice with methylcholanthrene-induced fibrosarcoma; cited from earlier work
[3] = tested on: Stage IV Melanoma Characterized by Distant Unresectable Metastases; experiment: Phase II clinical trial, tumor response (RECIST) in stage IV melanoma patients; type: in vivo, human; conditions: preliminary analysis on 142 patients; higher doses of Tα1
Description: Trial Design phase II, randomized, stratified, open-study testing different doses of Tα1 in association with DTIC and IFNα, as first line therapy for stage IV melanoma patients characterized by distant unresectable metastases (AJCC; Journal of Clinical Oncology 2001, 19: 3635-3648) without brain metastases. The primary study end-point was tumor response, and the following combination composition were used: • DTIC (800 mg/m^2)+IFNα (3 MIU)+Tα1 (1.6 mg) (97 pts); • DTIC (800 mg/m^2)+IFNα (3 MIU)+Tα1 (3.2 mg) (97 pts); • DTIC (800 mg/m^2)+Tα1 (3.2 mg) (98 pts); • DTIC (800 mg/m^2)+IFNα (3 MIU) (94 pts);
The five groups were analyzed independently one another within the so-called “pick the winner” strategy.
Methods: Recycling every 28 days, patients were administered DTIC (800 mg/m^2) i.v. at day 1, Tα1 (1.6, 3.2 or 6.4 mg) s.c. at days 8-11 and 15-18, and IFNα (3 MIU) s.c. at day 11 and 18. Clinical response was evaluated every two cycles according to RECIST criteria (New Guidelines to Evaluate the Response to Treatment in Solid Tumors; Journal of the National Cancer Institute, 2000. 92: 205-216) utilizing a central reader.
The randomized patients were stratified according to the disease site: M1a, M1b or M1c level.
1) Patients with cutaneous, subcutaneous and/or limphnodal metastases with normal serum LDH value (from 96 to 460 U/L) were classified as M1a. […]

Question: Which results are given for “thymosin alpha 1 (SDAAVDTSSEITTKDLKEKKEVVEEAEN; ends and bridges not checked; UniProt P06454 2-29, looked up) [a compound well known in the medical field]”?
Answer: liver and lung metastases of lymphosarcoma cells (lymphosarcoma cells): significantly reduced; local sarcoma growth (lymphosarcoma cells): significantly reduced; tumor volume [1]: significantly decreased; pulmonary metastases [2]: reduced; dose-response effect [3]: clear dose-response effect
